“Also recorded” adds a separate entry of the source. Read-outs that look alike come from different tables or passages of the source.
Columns and labels:
Type in all cases: cell-based
[1] = biological target: T1, human parathyroid cell calcium receptor (pHuPCaR 5.2, pHuPCaR 4.0) (Homo sapiens, UniProt P41180); experiment: Cl- current in Xenopus oocytes expressing cloned human parathyroid calcium receptor; conditions: for concentrations evoking increases in Cl- current: 0.3 mM extracellular Ca2+; for response in the absence of extracellular Ca2+: no extracellular Ca2+
T1 sequence (P41180 with tags, fused parts or gaps INS536PLTFVLSVLQ/Q926R/E1011Q): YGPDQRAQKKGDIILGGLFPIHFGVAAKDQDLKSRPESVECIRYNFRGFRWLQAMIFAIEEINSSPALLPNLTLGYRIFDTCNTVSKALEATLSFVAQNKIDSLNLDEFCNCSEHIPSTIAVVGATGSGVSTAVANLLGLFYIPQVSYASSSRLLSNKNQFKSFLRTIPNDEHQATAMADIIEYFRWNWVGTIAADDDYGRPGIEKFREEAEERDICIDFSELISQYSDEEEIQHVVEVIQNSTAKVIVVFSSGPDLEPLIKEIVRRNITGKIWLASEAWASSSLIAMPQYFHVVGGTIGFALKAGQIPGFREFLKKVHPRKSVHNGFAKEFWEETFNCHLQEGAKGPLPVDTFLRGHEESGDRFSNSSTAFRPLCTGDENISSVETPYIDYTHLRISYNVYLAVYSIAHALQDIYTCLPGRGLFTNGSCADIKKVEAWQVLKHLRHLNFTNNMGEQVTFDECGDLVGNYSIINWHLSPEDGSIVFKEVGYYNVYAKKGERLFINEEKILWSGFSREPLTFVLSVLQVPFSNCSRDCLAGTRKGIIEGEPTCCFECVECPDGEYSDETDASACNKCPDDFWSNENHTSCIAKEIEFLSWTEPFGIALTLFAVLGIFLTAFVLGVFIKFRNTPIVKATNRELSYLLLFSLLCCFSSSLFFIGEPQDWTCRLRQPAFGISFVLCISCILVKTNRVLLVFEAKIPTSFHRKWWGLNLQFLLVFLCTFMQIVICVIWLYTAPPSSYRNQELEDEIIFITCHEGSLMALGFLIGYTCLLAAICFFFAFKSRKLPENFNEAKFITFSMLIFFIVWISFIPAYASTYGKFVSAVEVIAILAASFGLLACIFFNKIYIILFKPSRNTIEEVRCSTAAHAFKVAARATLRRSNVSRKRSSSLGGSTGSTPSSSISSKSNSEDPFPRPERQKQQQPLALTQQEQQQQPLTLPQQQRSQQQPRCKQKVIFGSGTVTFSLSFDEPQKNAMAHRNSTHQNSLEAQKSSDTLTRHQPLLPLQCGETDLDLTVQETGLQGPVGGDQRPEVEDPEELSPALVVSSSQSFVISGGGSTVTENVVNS
Method: Representative cDNA inserts for both size classes were subcloned into the plasmid vector pBluescript SK. Linearization followed by in vitro transcription using T7 RNA polymerase produced cRNA transcripts. The cRNA transcripts were injected into Xenopus oocytes (150 ng/μl RNA; 50 nl/oocyte) for functional analysis. Following incubation periods of 2-4 days, the oocytes were assayed for the presence of functional calcium receptors. Both clone types gave rise to functional calcium receptors as assessed by the stimulation of calcium-activated chloride currents upon addition of appropriate calcium receptor agonists. […] Thus, both clones encode a functional, human parathyroid cell calcium receptor.
Xenopus oocytes were injected with pHuPCaR 5.2, the 5.2 Kb cDNA encoding a parathyroid cell calcium receptor derived from a human parathyroid cell adenoma. (See Example 27.) After two to three days, Cl^- currents were measured in the oocytes using a two-electrode voltage clamp.

[2] = tested on: parathyroid cell calcium receptor; conditions: for response in the absence of extracellular Ca2+: Ca2+-free / absence of extracellular Ca2+
Method: For example, bovine parathyroid cells loaded with fura-2 are initially suspended in buffer containing 0.5 mM CaCl2. A test substance is added to the cuvette in a small volume (5-15 μl) and changes in the fluorescence signal are measured. Cumulative increases in the concentration of the test substance are made in the cuvette until some predetermined concentration is achieved or no further changes in fluorescence are noted.
This section describes procedures used to obtain and treat parathyroid cells from calves and humans. […] Human parathyroid glands, were obtained from patients undergoing surgical removal of parathyroid tissue for primary or uremic hyperparathyroidism (uremic HPT), and were treated similarly to bovine tissue.
Glands were trimmed of excess fat and connective tissue and then minced with fine scissors into cubes approximately 2-3 mm on a side. Dissociated parathyroid cells were prepared by collagenase digestion and then purified by centrifugation in Percoll buffer. The resultant parathyroid cell preparation was essentially devoid of red blood cells, adipocytes, and capillary tissue as assessed by phase contrast microscopy and Sudan black B staining. Dissociated and purified parathyroid cells were present as small clusters containing 5 to 20 cells.
The cells were then pelleted, resuspended in the same buffer, but lacking the ester, and incubated a further 15 minutes at 37° C. The cells were subsequently washed twice with PCB containing 0.5 mM CaCl2 and 0.5% BSA and maintained at room temperature (about 20° C.). Immediately before use, the cells were diluted five-fold with prewarmed 0.5 mM CaCl2 -PCB to obtain a final BSA concentration of 0.1%. The concentration of cells in the cuvette used for fluorescence recording was 1-2×10^6 /ml.
The fluorescence of indicator-loaded cells was measured at 37° C. in a spectrofluorimeter (Biomedical Instrumentation Group, University of Pennsylvania, Philadelphia, Pa.) equipped with a thermostated cuvette holder and magnetic stirrer using excitation and emission wavelengths of 340 and 510 nm, respectively. […] Leakage of dye is dependent on temperature and most occurs within the first 2 minutes after warming the cells in the cuvette. Dye leakage increases only very slowly thereafter. To correct the calibration for dye leakage, cells were placed in the cuvette and stirred at 37° C. for 2-3 minutes. The cell suspension was then removed, the cells pelleted, and the supernatant returned to a clean cuvette. […] This estimate was subtracted from the apparent Fmin.
Dissociated bovine parathyroid cells were purified on gradients of Percoll and cultured overnight in serum-free medium.

C-cell calcium receptor = biological target: T2, C-cell calcium receptor (Rattus norvegicus, UniProt P48442); set-up: Neoplastic C-cells derived from a rat medullary thyroid carcinoma (rMTC 6-23); host or cells: rMTC 6-23
T2 sequence (P48442 20-1079): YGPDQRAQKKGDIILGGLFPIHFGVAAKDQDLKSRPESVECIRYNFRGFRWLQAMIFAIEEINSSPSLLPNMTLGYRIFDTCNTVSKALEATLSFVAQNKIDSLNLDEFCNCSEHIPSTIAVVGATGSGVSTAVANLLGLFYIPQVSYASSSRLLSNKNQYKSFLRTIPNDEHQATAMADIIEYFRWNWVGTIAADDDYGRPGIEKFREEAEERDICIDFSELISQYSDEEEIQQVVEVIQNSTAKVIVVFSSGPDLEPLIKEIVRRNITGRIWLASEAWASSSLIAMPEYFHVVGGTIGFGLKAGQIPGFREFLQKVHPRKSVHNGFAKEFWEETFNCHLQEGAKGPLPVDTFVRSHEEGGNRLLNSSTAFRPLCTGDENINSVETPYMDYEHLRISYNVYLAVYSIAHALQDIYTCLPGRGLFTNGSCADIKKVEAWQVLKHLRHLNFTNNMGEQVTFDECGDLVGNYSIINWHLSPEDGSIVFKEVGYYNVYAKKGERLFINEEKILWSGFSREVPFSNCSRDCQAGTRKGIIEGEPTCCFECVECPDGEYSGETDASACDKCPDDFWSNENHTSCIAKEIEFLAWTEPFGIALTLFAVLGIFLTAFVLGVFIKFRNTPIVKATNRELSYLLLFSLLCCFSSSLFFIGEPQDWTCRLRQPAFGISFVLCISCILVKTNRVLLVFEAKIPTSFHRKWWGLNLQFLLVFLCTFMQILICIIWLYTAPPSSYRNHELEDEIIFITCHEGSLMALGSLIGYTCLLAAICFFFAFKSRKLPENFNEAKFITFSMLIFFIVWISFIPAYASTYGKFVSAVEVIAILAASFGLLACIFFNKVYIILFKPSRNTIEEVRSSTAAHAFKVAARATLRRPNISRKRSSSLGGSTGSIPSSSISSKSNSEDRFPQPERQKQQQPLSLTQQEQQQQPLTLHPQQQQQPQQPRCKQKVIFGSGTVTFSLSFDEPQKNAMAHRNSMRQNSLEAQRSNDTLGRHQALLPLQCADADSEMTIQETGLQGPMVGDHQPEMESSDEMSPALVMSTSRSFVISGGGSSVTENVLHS
Excerpt: To assess the effects of molecular polycations on C-cells, a neoplastic cell line, derived from a rat medullary thyroid carcinoma (rMTC 6-23 cells) was used.

[3] = rMTC 6-23 cells, fura-2, inactive = no increase in cytosolic Ca2+ at 1-5 mM

COc1cccc([C@@H](C)NCCCc2ccccc2)c1 (single isomer, unassigned) [NPS R-467]
activation of oocyte-expressed human receptor [1]: activated the oocyte-expressed receptor at about the same concentrations | increase in [Ca2+]i after 10 μM neomycin ([2]; 30 μM NPS R-467 after 10 μM neomycin, Ca2+-free buffer): elicited a transient increase | increase in [Ca2+]i after 100 μM neomycin ([2]; 30 μM NPS R-467 after 100 μM neomycin, Ca2+-free buffer): did not cause an increase | increase in [Ca2+]i (words) ([2]; 30 μM, Ca2+-free buffer): no increase; also recorded: did not cause any increase | increase in [Ca2+]i (words) ([2]; 0.5 mM extracellular Ca2+): rapid and transient increase | response in the absence of extracellular Ca2+ [2]: abolished; also recorded: do not cause the mobilization of intracellular | effect on responses to extracellular Ca2+ ([2]; bovine parathyroid cells): increase the sensitivity of the calcium receptor

NCCCNCCCCNCCCNCCCNCCCNC(=O)Cc1c[nH]c2ccccc12 [NPS 019]
transient increase in [Ca2+]i (C-cell calcium receptor; 10 μM, 0.5 mM [Ca2+]): transient increase | concentrations evoking increases in Cl- current [1]: 3 to 30 µM | response in the absence of extracellular Ca2+ [1]: persisted | EC50 ([2]; bovine parathyroid cells, fura-2, read-out: EC50 PARATHYROID (Table 6)): 40 µM

COc1cccc([C@@H](C)NCCCc2ccccc2Cl)c1 [NPS R-568, (R)-(+)-N-[3-(2-chlorophenyl)propyl]-amethyl-α-3-methoxybenzylamine]
EC50 (C-cell calcium receptor; [3]): 1.9 µM | activation of oocyte-expressed human receptor [1]: activated the oocyte-expressed receptor at about the same concentrations | effect on extracellular Ca2+ concentration-response curve [1]: shifted the concentration-response curve to the left | concentrations evoking increases in Cl- current [1]: 3 to 30 µM | response in the absence of extracellular Ca2+ [1]: abolished | increase in [Ca2+]i / mobilization of intracellular Ca2+ [2]: evokes increases | response in the absence of extracellular Ca2+ [2]: fails to evoke increases; also recorded: do not cause the mobilization of intracellular | effect on responses to extracellular Ca2+ ([2]; bovine parathyroid cells): potentiate responses to extracellular; also recorded: increase the sensitivity of the calcium receptor

NC[C@@H]1O[C@H](O[C@H]2[C@@H](O)[C@H](O[C@@H]3[C@@H](O)[C@H](N)C[C@H](N)[C@H]3O[C@H]3O[C@H](CN)[C@@H](O)[C@H](O)[C@H]3N)O[C@@H]2CO)[C@H](N)[C@@H](O)[C@@H]1O [Neomycin]
effect on basal [Ca2+]i (C-cell calcium receptor): fails to affect basal or evoked increases; also recorded: without effect on basal | EC50 C-CELL (Table 6) (C-cell calcium receptor; [3]): inactive | increase in [Ca2+]i / mobilization of intracellular Ca2+ [2]: evoked rapid and transient increases | increase in [Ca2+]i (words) ([2]; 10 μM, Ca2+-free buffer): did not by itself cause an increase | increase in [Ca2+]i (words) ([2]; 100 μM, absence of extracellular Ca2+): evoked a rapid and transient increase

From patent US5858684A, “Method of screening calcium receptor-active molecules” (priority 1995, dated 1999)
